Test results taken from ChEMBL document CHEMBL3046189, “Synthesis of potent inhibitors of histidinol dehydrogenase” (Bioorg Med Chem Lett, 1996).
The source made the active and inactive calls. The calls are words filed in the database; no cut-off is given here.

Assays:
[1] = molecular target: T1, Histidinol dehydrogenase, chloroplastic (Brassica oleracea var. capitata) (UniProt P24226); test: Ratio of histidinol IC50 to compound IC50 for Brassica oleracea (cabbage) histidinol dehydrogenase
T1 sequence (whole entry): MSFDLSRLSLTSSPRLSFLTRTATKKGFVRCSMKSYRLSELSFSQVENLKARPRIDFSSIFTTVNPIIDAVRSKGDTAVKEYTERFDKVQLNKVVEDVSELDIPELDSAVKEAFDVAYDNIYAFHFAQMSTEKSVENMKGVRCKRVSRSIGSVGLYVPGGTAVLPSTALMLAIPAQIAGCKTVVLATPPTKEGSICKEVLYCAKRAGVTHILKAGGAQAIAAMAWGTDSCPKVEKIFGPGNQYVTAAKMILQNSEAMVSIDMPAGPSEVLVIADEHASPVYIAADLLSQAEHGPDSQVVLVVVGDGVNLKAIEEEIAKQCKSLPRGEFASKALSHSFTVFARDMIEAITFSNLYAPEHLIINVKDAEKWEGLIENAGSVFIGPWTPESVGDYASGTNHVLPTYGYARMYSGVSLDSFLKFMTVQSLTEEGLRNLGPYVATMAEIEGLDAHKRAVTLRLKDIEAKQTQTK

[2] = molecular target: T2, Histidinol dehydrogenase, chloroplastic (Brassica oleracea var. capitata, UniProt P24226); test: Inhibition of Brassica oleracea (cabbage) histidinol dehydrogenase pre-incubated for 10 min before substrate histidinol addition by spectrophotometry
T2 sequence (P24226 whole entry): T1 sequence (whole entry)

Histidinol dehydrogenase [3] = molecular target: T3, Histidinol dehydrogenase (Escherichia coli (strain K12), UniProt P06988); test: Inhibition of Escherichia coli histidinol dehydrogenase preincubated for 10 min before substrate histidinol addition by spectrophotometry
T3 sequence (P06988 whole entry): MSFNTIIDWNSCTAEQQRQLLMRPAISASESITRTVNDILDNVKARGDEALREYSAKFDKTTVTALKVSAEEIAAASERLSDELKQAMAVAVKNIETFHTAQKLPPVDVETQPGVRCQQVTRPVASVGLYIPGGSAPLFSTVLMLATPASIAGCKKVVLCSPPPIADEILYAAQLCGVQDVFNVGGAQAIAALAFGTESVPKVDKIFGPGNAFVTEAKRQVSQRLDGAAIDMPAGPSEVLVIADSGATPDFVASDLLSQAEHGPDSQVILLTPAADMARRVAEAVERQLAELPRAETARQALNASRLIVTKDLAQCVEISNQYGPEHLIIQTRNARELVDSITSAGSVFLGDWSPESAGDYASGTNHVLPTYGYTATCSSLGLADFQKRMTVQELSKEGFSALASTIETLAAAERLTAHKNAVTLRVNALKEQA

[4] = Ratio of IC50 for Escherichia coli histidinol dehydrogenase to IC50 for cabbage histidinol dehydrogenase
Histidinol dehydrogenase [5] = molecular target: T3, Histidinol dehydrogenase; test: Binding affinity to Escherichia coli histidinol dehydrogenase
Oryza sativa [6] = test: Inhibition of root growth in Oryza sativa (rice) seedlings grown in agar containing basal salts; assay type: functional, organism-based
Oryza sativa [7] = test: Inhibition of root growth in Oryza sativa (rice) seedlings grown in agar containing basal salts in presence of histidine; assay type: functional, organism-based

Question: For `N[C@@H](Cc1c[nH]cn1)C(=O)Cc1ccc(-c2ccccc2)cc1`, which Ratio IC50 [1] is on record?
Answer: > 1000

Question: What about the IC50 [2] of the same compound?
Answer: 40 nM

Question: And the Ki [2]?
Answer: 2.9 nM

Question: With `N[C@@H](Cc1c[nH]cn1)C(=O)Cc1ccccc1Br` as the compound, how does the IC50 [2] read?
Answer: 1000 nM

Question: With `N[C@@H](Cc1c[nH]cn1)C(=O)Cc1ccc(Cl)cc1` as the compound, how does the IC50 [2] read?
Answer: 300 nM

Question: Which IC50 (Histidinol dehydrogenase [3]) does the source give for `N[C@@H](Cc1c[nH]cn1)C(=O)CCCc1ccccc1` here?
Answer: 80000 nM

Question: Which IC50 (Histidinol dehydrogenase [3]) does the source give for `N[C@@H](Cc1c[nH]cn1)C(=O)c1ccccc1` here?
Answer: > 100000 nM

Question: For `COc1ccc(CC(=O)[C@@H](N)Cc2c[nH]cn2)cc1`, which IC50 [2] is on record?
Answer: 1000 nM

Question: With `CC(=O)C(N)Cc1c[nH]cn1` (stereo unspecified) as the compound, how does the IC50 (Histidinol dehydrogenase [3]) read?
Answer: 10000 nM

Question: What about the Ki (Histidinol dehydrogenase [3]) of the same compound?
Answer: 5000 nM

Question: With `CCC(=O)C(N)Cc1c[nH]cn1` (stereo unspecified) as the compound, how does the IC50 (Histidinol dehydrogenase [3]) read?
Answer: > 100000 nM

Question: For `N[C@@H](Cc1c[nH]cn1)C(=O)Cc1ccccc1`, which Ratio IC50 [4] is on record?
Answer: 10

Question: What about the IC50 (Histidinol dehydrogenase [3]) of the same compound?
Answer: 1000 nM

Question: What about the IC50 [2] of the same compound?
Answer: 100 nM

Question: And the Ki [2]?
Answer: 7.6 nM

Question: Which IC50 [2] does the source give for `Nc1ccc(CC(=O)[C@@H](N)Cc2c[nH]cn2)cc1` here?
Answer: 500 nM

Question: Which IC50 [2] does the source give for `N[C@@H](Cc1c[nH]cn1)C(=O)Cc1cccc(Br)c1` here?
Answer: 100 nM

Question: Which Kd (Histidinol dehydrogenase [5]) does the source give for `N[C@H](C=O)Cc1c[nH]cn1` [L-HISTIDINAL] here?
Answer: 1.4 nM

Question: With `N[C@@H](Cc1c[nH]cn1)C(=O)CCc1ccccc1` as the compound, how does the IC50 (Histidinol dehydrogenase [3]) read?
Answer: 100000 nM

Question: Which IC50 [2] does the source give for `N[C@@H](Cc1c[nH]cn1)C(=O)Cc1ccc(Br)c(Br)c1` here?
Answer: 50 nM

Question: Which “growth inhibition (GI)” value (Oryza sativa [6]) does the source give for `N[C@@H](Cc1c[nH]cn1)C(=O)Cc1ccc(Br)cc1` here?
Answer: Active

Question: What about the Ratio IC50 [1] of the same compound?
Answer: > 1000

Question: What about the IC50 [2] of the same compound?
Answer: 40 nM

Question: And the Ki [2]?
Answer: 4.4 nM

Question: With `N[C@@H](Cc1c[nH]cn1)C(=O)C(F)(F)C(F)(F)F` as the compound, how does the IC50 (Histidinol dehydrogenase [3]) read?
Answer: 20000 nM

Question: For `N[C@@H](Cc1c[nH]cn1)C(=O)Cc1cccc(O)c1`, which IC50 [2] is on record?
Answer: 300 nM

Question: Which IC50 [2] does the source give for `Nc1cc(CC(=O)[C@@H](N)Cc2c[nH]cn2)ccc1Br` here?
Answer: 8000 nM

Question: What does the source list for `Nc1cccc(CC(=O)[C@@H](N)Cc2c[nH]cn2)c1`?
Answer: growth inhibition (GI) (Oryza sativa [6]): Active; growth inhibition (GI) (Oryza sativa [7]): inactive; IC50 [2]: 50 nM; Ki [2]: 7.4 nM
